Data set [1] relates to L. donovani promastigotes. The experiment in a line: Transmission electron microscopy of promastigotes. It is filed as cell-based, Leishmania donovani. As to conditions: 48 h; CsA 16 μM, DHCsA-d 12 μM, SSG 20 μM. The text has this:
(§1) Next, the cells were dehydrated in acetone and embedded in epoxy resin. Stained with lead citrate and observed under a Hitachi HT7700 transmission electron microscope.

For data set [2], the system named is L. donovani infected macrophages (RAW 264.7). The experiment in a line: Cytokine quantification by ELISA in supernatants of L. donovani-infected RAW 264.7 macrophages. Type of data set: cell-based, mouse. The conditions noted are these: 24 h, 48 h and 72 h; CsA 10 μM, DHCsA-d 5 μM, SSG 9 μM. As to the method: (§2) Mouse RAW 264.7 macrophages (5.0 × 10^5 cells/per well), adhered for 24 h at 37 °C, 5% CO2, in PRMI 1640 medium supplemented with 10% FBS were infected with promastigotes at a macrophages-to-parasite ratio of 1:20 for 6 h at 37 °C, 5% CO2, and subsequently the non-infected parasites were removed by washing three times with PBS. Infected macrophages were incubated in PRMI 1640 medium and 10% FBS at 37 °C, 5% CO2, without drugs for 24 h. […] The cells were further incubated for 3 days, and the medium supernatants were retrieved at 24, 48 and 72 h. Subsequently, the cytokines IL-12, IL-10, IL-4, IFN-γ and TNF-α were measured utilizing the BD OpitELA ELISA Kit (BD). NO and H2O2 concentrations in the supernatants were detected by nitric oxide and hydrogen peroxide assay kits (Beyotime), respectively.
For orientation: In an ELISA, binding on a coated surface is turned into a signal by an enzyme label.

For data set [3], the system named is L. donovani cyclophilin A (LdCyPA). Nature of the data set: Western blotting of LdCyPA expression in intracellular amastigotes. The conditions noted are these: 48 h; CsA 10 μM, DHCsA-d 5 μM, SSG 9 μM; normalized to α-tubulin. Type of data set: cell-based, Leishmania donovani. As to the method:
(§3) Polyclonal antibodies against LdCyPA were obtained to monitor protein expression. Representative peptides of LdCyPA were analyzed through two predictors for B cells, BEPIPRED and BCPRED12. […] Polyclonal antiserum was produced in New Zealand white rabbits. The rabbits were immunized with Freund’s adjuvant (Sigma-Aldrich), containing 1500 μg of LdCyPA peptide, on days 0, 15 and 30. The rabbits received three subcutaneous injections, the first in complete Freund’s adjuvant and later two in incomplete Freund’s adjuvant. Serum was obtained and antibody titers were estimated by ELISA on 25 and 42 days after the last injection.
(§4) These cells were then lysed with a protein lysis buffer supplemented with protease and phosphatase inhibitors and the protein concentration was determined by the BCA Kit (Beyotime). The extracted proteins were denatured for 5 min at 100 °C after adding appropriate amounts of loading buffer. Approximately 40 to 50 μg of proteins was loaded in each lane of a 12% polyacrylamide gel (Beyotime). […] The PVDF membranes were visualized with an enhanced chemiluminescence western blotting detection kit (Beyotime) and the protein bands were analyzed by densitometric studies using ImageJ software.
Background: A western blot detects proteins with antibodies after separation by electrophoresis.

Data set [4] relates to murine macrophages (RAW 264.7). Nature of the data set: Cytotoxicity assessment, Cell Counting Kit-8. It is filed as cell-based, mouse. As to the method: Murine macrophages were cultivated in a 96-well plate using PRIM 1640 medium containing 10% FBS and maintained at 37 °C, 5% CO2, for 24 h. […] The cytotoxicity was measured at 24 and 48 h following a standard protocol.

For data set [5], the system named is L. donovani promastigotes. Nature of the data set: Promastigote inhibition, flow cytometry (annexin V-FITC/PI). The conditions noted are these: mean ± SD of three independent experiments. Type of data set: cell-based, Leishmania donovani. As to the method: (§5) Leishmania donovani strain MHOM/CN/IN/80/DD8 was used in this study. Leishmania promastigotes in the logarithmic phase were cultured at 28 °C in M199 medium at pH 7.4 (Sigma-Aldrich, Saint Louis, MO, USA), supplemented with 10% fetal bovine serum (Hyclone, Logan, UT, USA) and antibiotics (Pen-Strep, 100 U/ml penicillin-100 […] streptomycin sulphate).
Inhibition rate (%) was calculated as follows: Inhibition rate (%) = 100% − [(No. of live parasites in treated sample/No. of live parasites in untreated control) × 100%].
(§6) RAW 264.7 cells (5.0 × 10^5 cells/per well) were plated on round glass coverslips in 24-well plates and allowed to adhere to the slides for 24 h at 37 °C, 5% CO2, in PRMI 1640 medium (Gibco, Franklin, TN, USA) supplemented with 10% FBS (Gibco). Adherent macrophages were infected with L. donovani promastigotes, at a macrophages-to-parasite ratio of 1:20 for 6 h at 37 °C, 5% CO2. Next, the non-infected parasites were removed by washing three times with PBS, and the infected macrophages were incubated in 37 °C in 5% CO2 with PRMI 1640 medium and 10% FBS without drugs for 24 h. […] At 24 and 48 h, the glass coverslips were fixed in methanol (Solarbio, Beijing, China) and stained with Wright’s stain (Solarbio). The numbers of parasites were determined using light microscopy by counting at least 200 cells per slide. The results are expressed as means of three independent experiments.
(§7) All experiments were carried out in triplicates and repeated at least three times and the figures shown are representative of these experiments. IC50 were calculated according to a nonlinear regression using a log inhibitor-versus response equation with 95% confidence intervals in the GraphPad Prism 6.0 software. The data were analyzed using Student’s t-test for comparison of two groups and data values were expressed as the mean ± standard deviation (SD). Significant differences were determined and designated with asterisks as follows: *P < 0.05; **P < 0.01; ***P < 0.001 and ****P < 0.0001.

Data set [6] concerns L. donovani cyclophilin A (LdCyPA). The experiment in a line: Western blotting of LdCyPA expression in promastigotes. It is filed as cell-based, Leishmania donovani. As to conditions: 48 h; CsA 16 μM, DHCsA-d 12 μM, SSG 20 μM; normalized to α-tubulin. As to the method: as §3, §4
In data set [7] the test system is L. donovani infected macrophages (RAW 264.7). Nature of the data set: NO and H2O2 quantification in supernatants of L. donovani-infected RAW 264.7 macrophages. It is filed as cell-based, mouse. As to conditions: 24 h, 48 h and 72 h; CsA 10 μM, DHCsA-d 5 μM, SSG 9 μM. As to the method: as §2
In data set [8] the test system is intracellular amastigotes of L. donovani. The experiment in a line: Transmission electron microscopy of intracellular amastigotes in RAW 264.7 macrophages. Type of data set: cell-based, Leishmania donovani. As to conditions: 48 h, DHCsA-d 5 μM; for Ultrastructure of intracellular amastigotes (mitochondria): CsA 10 μM, SSG 9 μM.
Excerpt: as §1

Data set [9] deals with intracellular amastigotes of Leishmania donovani. Nature of the data set: Intracellular amastigote inhibition in infected RAW 264.7 macrophages, Wright's stain and microscopy. It is filed as cell-based. The conditions noted are these: for Number of intracellular amastigotes compared to untreated (Wright's staining): CsA 10 μM, DHCsA-d 5 μM, SSG 9 μM; for IC50: intracellular amastigotes in RAW 264.7, mean ± SD. As to the method: as §5
as §6, with “experiments. The 50% inhibitory concentration (IC50) was calculated for promastigotes and intracellular amastigotes by fitting the values to a non-linear curve analysis.” for “experiments.”
as §7

The subject of data set [10] is cyclophilin A (CyPA). The experiment in a line: Western blotting of CyPA expression in RAW 264.7 cells. The conditions noted are these: 48 h; CsA 10 μM, DHCsA-d 5 μM, SSG 9 μM; normalized to α-tubulin. Type of data set: cell-based, mouse. As to the method: These cells were then lysed with a protein lysis buffer supplemented with protease and phosphatase inhibitors and the protein concentration was determined by the BCA Kit (Beyotime). The extracted proteins were denatured for 5 min at 100 °C after adding appropriate amounts of loading buffer. Approximately 40 to 50 μg of proteins was loaded in each lane of a 12% polyacrylamide gel (Beyotime). Proteins were separated at 120 V until the dye front reached the bottom of the gel, followed by transfer of the gels to polyvinylidene fluoride (PVDF) membranes (EMD, MA, USA) in transfer buffer (25 mM Tris-HCl, 192 mM glycine, 20% methanol, 0.02% SDS, pH 8.3) and run at 200 mA for 60 min. The membranes were then soaked in a blocking buffer (1 × PBS, 0.1% Tween 20) and supplemented with 1% bovine serum albumin (Sigma-Aldrich) for 2 h, before incubating overnight at 4 °C individually with LdCyPA polyclonal antibody, CyPA antibody (Affinity, Dublin, OH, USA) and α-tubulin antibody (Affinity) at appropriate dilutions. All the primary antibodies were used at a 1:4000 dilution and horseradish peroxidase-conjugated anti-rabbit immunoglobulin secondary antibodies (Affinity) were used at a 1:5000 dilution. The PVDF membranes were visualized with an enhanced chemiluminescence western blotting detection kit (Beyotime) and the protein bands were analyzed by densitometric studies using ImageJ software.

Setting [11] is: 24 h, mean ± SD, read-out: Cytotoxicity (RAW 264.7) CC50.
The mark [12] stands for this setting: 48 h, mean ± SD, read-out: Cytotoxicity (RAW 264.7) CC50.

Read-outs that look alike come from different tables or passages of the source.

As usually defined, the CC50 is the concentration giving 50% cytotoxicity. A word on the IC50: it is the concentration at which inhibition is half-maximal. A higher IC50 goes with weaker potency in that assay. As to `O.O.O.O.O.O.O.O.O.O=C([O-])[C@@H]1[O][Sb](=[O])([O][Sb]2(=[O])[O][C@H]([C@H](O)CO)[C@H](O)[C@H](C(=O)[O-])[O]2)[O][C@H]([C@H](O)CO)[C@@H]1O.[Na+].[Na+].[Na+]` (stereo partly drawn) [SSG, Sodium stibogluconate], the “Ultrastructure of promastigote mitochondria” value in data set [1] is given as “completely disorganized”. Further, in data set [2], the “IFN-γ level vs untreated infected cells” value was “significant increases”, the “IL-4 level vs untreated infected cells” value was “significantly decreased”, the “IL-10 level vs untreated infected cells” value was “significantly decreased” and the “IL-12 level vs untreated infected cells” value is reported as “significant increases”. Further, the “TNF-α level vs untreated infected cells” value in [2] is “significant increases”. Besides, the “Expression of LdCyPA in intracellular amastigotes vs untreated” value in [3] is “no significant changes”. In addition, in data set [4] (setting [11]), the CC50 was above 120 µM. Moreover, the CC50 in data set [4] (setting [12]) was above 120 µM. Besides, the CC50 in data set [4] (RAW 264.7, time not given in the sentence, read-out: CC50) is above 120 µM. This molecule also returned an IC50 in data set [5] (24 h) of 32.3 ± 1.6 µM. This molecule came in with an IC50 in data set [5] (48 h) of 20.2 ± 1.4 µM. For the same molecule, the “Expression of LdCyPA in promastigotes vs untreated” value in [6] is reported as “no significant changes”. Further, in data set [7], the “H2O2 production vs untreated infected cells” value is on record as “significantly decreased” and the “NO production vs untreated infected cells” value is reported as “significantly decreased”. Moreover, the “Ultrastructure of intracellular amastigotes (mitochondria)” value in [8] is on record as “disintegrated”. For the same molecule, in data set [9] (24 h), the “Number of intracellular amastigotes compared to untreated (Wright's staining)” value was “reduced” and the IC50 was found to be 9.51 ± 0.5 µM. Also, in data set [9] (48 h), the “Number of intracellular amastigotes compared to untreated (Wright's staining)” value is “basically absent” and the IC50 is 8.27 ± 0.1 µM. Besides, the “Expression of CyPA in RAW 264.7 cells vs untreated” value in data set [10] is “no significant changes”.
As to `CCCC[C@@H](C)[C@@H](O)[C@H]1C(=O)N[C@@H](CC)C(=O)N(C)CC(=O)N(C)[C@@H](CC(C)C)C(=O)N[C@@H](C(C)C)C(=O)N(C)[C@@H](CC(C)C)C(=O)N[C@@H](C)C(=O)N[C@H](C)C(=O)N(C)[C@@H](CC(C)C)C(=O)N(C)[C@@H](CC(C)C)C(=O)N(C)[C@@H](C(C)C)C(=O)N1C` [DHCsA-d, dihydrocyclosporin A], the “Ultrastructure of promastigote mitochondria” value in [1] is on record as “completely disorganized”. Further, in [2], the “IFN-γ level vs untreated infected cells” value was “significant increases”, the “IL-4 level vs untreated infected cells” value is reported as “significantly decreased”, the “IL-10 level vs untreated infected cells” value is “significantly decreased” and the “IL-12 level vs untreated infected cells” value is given as “significant increases”. Also, the “TNF-α level vs untreated infected cells” value in data set [2] is recorded as “significant increases”. Also, in [3], the “Expression of LdCyPA in intracellular amastigotes vs untreated” value is “no significant changes”. Besides, in data set [4] (setting [11]), the cytotoxic concentration (CC50) was 7.98 ± 0.4 µM. In addition, in data set [4] (setting [12]), the CC50 was 6.65 ± 0.7 µM. The molecule also showed an IC50 in data set [5] (24 h) of 21.2 ± 1.2 µM. The molecule also displayed an IC50 in data set [5] (48 h) of 12.1 ± 1.1 µM. For the same molecule, the “Expression of LdCyPA in promastigotes vs untreated” value in data set [6] is “no significant changes”. In data set [7], the “H2O2 production vs untreated infected cells” value is recorded as “significantly decreased” and the “NO production vs untreated infected cells” value is recorded as “significantly decreased”. In data set [8], the “Ultrastructure of intracellular amastigotes (mitochondria)” value is “disintegrated” and the “Share of intracellular amastigotes degraded in parasitophorous vacuoles” value is recorded as “Almost half”. Further, in data set [9] (24 h), the “Number of intracellular amastigotes compared to untreated (Wright's staining)” value was “reduced” and the IC50 came to 5.23 ± 2.1 µM. For the same molecule, in [9] (48 h), the “Number of intracellular amastigotes compared to untreated (Wright's staining)” value was “basically absent” and the midpoint of inhibition, the IC50, lay at 4.84 ± 0.4 µM. Further, the “Expression of CyPA in RAW 264.7 cells vs untreated” value in data set [10] is listed as “no significant changes”.

These data come from publication PMC7035640 (Parasites & Vectors, 2020).
